Measured values from patent US20220356186A1, “PERK INHIBITING PYRROLOPYRIMIDINE COMPOUNDS” (HiberCell, Inc., priority 2019, published 2022).
Like-named read-outs stand apart in the source and are kept apart here.

Assays:
[1] = test system: GFP-eIF2α in HEK293 cells; assay: PERK cellular assay, TR-FRET in HEK293-EGFP-eIF2a cells after tunicamycin-induced ER stress; format: cell-based; details: HEK293-EGFP-eIF2a cells, tunicamycin 2 hours, read-out: Cellular eIF2α IC50
Method: Stable cell lines were created in HEK293 cells using lentiviral particles harboring an expression vector for GFP-eIF2α. Cells were selected using puromycin and enriched using fluorescence activated cell sorting against GFP. HEK293-EGFP-eIF2a cells were plated at 5000 cells/well in 384-well assay plates and incubated overnight at 37° C., 5% CO2. Inhibitor compounds were added to the wells by Echo acoustic dispensing and incubated for 30 minutes at 37° C., 5% CO2 prior to induction of ER stress by addition of tunicamycin to […] for 2 hours. Cells were lysed and TR-FRET was measured in an EnVision plate reader (PerkinElmer). FRET ratio data was normalized to signal from lysates treated with DMSO vehicle control and plotted as percent inhibition against 10-point; 3-fold dilution series of inhibitors. IC50 values were calculated using 4-parameter logistical fitting in XLFit.

[2] = target: T1, EIF2AK3 (PERK) catalytic domain (amino acids 536-1116) (Homo sapiens, UniProt Q9NZJ5); assay: PERK in vitro activity assay (isolated), TR-FRET kinase assay; format: biochemical; details: isolated PERK enzyme, 1.5 μM ATP; read-out: Biochemical IC50
T1 construct: EIF2AK3 (PERK) catalytic domain (amino acids 536-1116)
T1 sequence (Q9NZJ5 536-1116): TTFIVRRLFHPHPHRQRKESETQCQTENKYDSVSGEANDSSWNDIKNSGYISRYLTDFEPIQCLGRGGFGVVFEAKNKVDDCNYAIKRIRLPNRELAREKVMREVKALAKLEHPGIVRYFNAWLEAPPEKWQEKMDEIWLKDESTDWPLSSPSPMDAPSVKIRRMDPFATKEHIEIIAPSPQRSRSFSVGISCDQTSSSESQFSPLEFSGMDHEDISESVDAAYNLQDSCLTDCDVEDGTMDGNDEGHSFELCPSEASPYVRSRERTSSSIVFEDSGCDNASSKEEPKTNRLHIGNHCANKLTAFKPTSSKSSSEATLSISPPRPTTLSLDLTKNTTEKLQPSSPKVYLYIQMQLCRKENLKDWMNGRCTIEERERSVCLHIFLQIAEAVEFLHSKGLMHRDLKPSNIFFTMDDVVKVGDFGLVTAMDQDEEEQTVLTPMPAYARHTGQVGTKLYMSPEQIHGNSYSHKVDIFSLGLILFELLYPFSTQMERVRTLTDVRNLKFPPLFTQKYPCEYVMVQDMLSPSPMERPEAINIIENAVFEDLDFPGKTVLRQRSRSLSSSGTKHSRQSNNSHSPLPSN
From the text: PERK In Vitro Activity Assay (Isolated):
In vitro Inhibition of PERK Enzyme Activity (isolated) Recombinant human EIF2AK2 (PKR) catalytic domain (amino acids 252-551), EIF2AK3 (PERK) catalytic domain (amino acids 536-1116), GFP-eIF2a substrate, and Terbium-labelled phospho-eIF2a antibody is obtained (Invitrogen, Carlsbad, Calif.).
Express and purify HIS-SUMO-GCN2 catalytic domain (amino acids 584-1019) from E. coli. Perform TR-FRET kinase assays in the absence or presence of inhibitors in a reaction buffer consisting of 50 mM HEPES, pH 7.5, 10 mM MgCb, 1.0 mM EGTA, and 0.01% Brij-35, and 100-200 nM GFP-eIF2a substrate. […] Add test compound, initiate the reaction by addition of enzyme, and incubate at room temperature for 45 minutes. Stop the reaction by addition of EDTA to a final concentration of 10 mM, add Terbium-labelled phospho-eIF2a antibody at a final concentration of 2 nM, and incubate for 90 minutes. Monitor the resulting fluorescence in an EnVison® Multilabel reader (PerkinElmer, Waltham, Mass.). Determine TR-FRET ratios and the resulting IC50 values using a 4-parameter nonlinear logistic equation as shown: Y=(A+((B−A)/(1+((C/x)[…])))) where, Y=% specific inhibition, A=Bottom of the curve, B=Top of the curve, C=absolute IC50 (concentration causing 50% inhibition), and D=hill slope.

Row | IC50 [2] [nM] | Compound | IC50 [1] [nM] | IC50 ([1]; Homo sapiens, HEK293, 2 h) [nM]
1 | 51 to 100 | Cc1nc(N)c2c(-c3ccc(NC(=O)C(O)c4cccc(F)c4)cc3C)cn(C)c2n1 (single isomer, unassigned) [Example 2, N-(4-(4-amino-2,7-dimethyl-7H-pyrrolo[2,3-d]pyrimidin-5-yl)-3-methylphenyl)-2-(3-fluorophenyl)-2-hydroxyacetamide] | 251 to 500 | –
2 | 1 to 25 | Cn1cc(-c2ccc(NC(=O)C(O)c3cccc(F)c3)cc2F)c2c(N)ncnc21 (single isomer, unassigned) [Example 3, N-(4-(4-amino-7-methyl-7H-pyrrolo[2,3-d]pyrimidin-5-yl)-3-fluorophenyl)-2-(3-fluorophenyl)-2-hydroxyacetamide] | 26 to 50 | –
3 | 1 to 25 | Cn1cc(-c2ccc(NC(=O)C(O)c3cccc(F)c3)cc2F)c2c(N)ncnc21 (single isomer, unassigned) [Example 4, N-(4-(4-amino-7-methyl-7H-pyrrolo[2,3-d]pyrimidin-5-yl)-3-fluorophenyl)-2-(3-fluorophenyl)-2-hydroxyacetamide] | 1 to 25 | –
4 | 1 to 25 | Cc1nc(N)c2c(-c3ccc(NC(=O)C(O)c4cccc(F)c4)cc3OC(F)(F)F)cn(C)c2n1 (single isomer, unassigned) [Example 21, N-(4-(4-amino-2,7-dimethyl-7H-pyrrolo[2,3-d]pyrimidin-5-yl)-3-(trifluoromethoxy)phenyl)-2-(3-fluorophenyl)-2-hydroxyacetamide] | 501 to 1000 | –
5 | 101 to 250 | Cc1nc(N)c2c(-c3ccc(NC(=O)C(O)c4cccc(F)c4)cc3OC(F)(F)F)cn(C)c2n1 (single isomer, unassigned) [Example 22, N-(4-(4-amino-2,7-dimethyl-7H-pyrrolo[2,3-d]pyrimidin-5-yl)-3-(trifluoromethoxy)phenyl)-2-(3-fluorophenyl)-2-hydroxyacetamide] | > 5000 | –
6 | 1 to 25 | Cc1nc(N)c2c(-c3ccc(NC(=O)C(O)c4cc(F)cc(C(F)(F)F)c4)cc3C)cn(C)c2n1 (single isomer, unassigned) [Example 54, N-(4-(4-amino-2,7-dimethyl-7H-pyrrolo[2,3-d]pyrimidin-5-yl)-3-methylphenyl)-2-(3-fluoro-5-(trifluorophenyl)phenyl)-2-hydroxyacetamide] | 26 to 50 | –
7 | 101 to 250 | Cc1nc(N)c2c(-c3ccc(NC(=O)C(O)c4cc(F)cc(C(F)(F)F)c4)cc3C)cn(C)c2n1 (single isomer, unassigned) [Example 55, N-(4-(4-amino-2,7-dimethyl-7H-pyrrolo[2,3-d]pyrimidin-5-yl)-3-methylphenyl)-2-(3-fluoro-5-(trifluoromethyl)phenyl)-2-hydroxyacetamide] | 251 to 500 | –
8 | 251 to 500 | Cc1nc(N)c2c(-c3ccc(NC(=O)C(O)c4cccc5cnn(C)c45)cc3C)cn(C)c2n1 (single isomer, unassigned) [Example 64, N-(4-(4-amino-2,7-dimethyl-7H-pyrrolo[2,3-d]pyrimidin-5-yl)-3-methylphenyl)-2-hydroxy-2-(1-methyl-1H-indazol-7-yl)acetamide] | – | 2000 to 3000
9 | 251 to 500 | Cc1nc(N)c2c(-c3ccc(NC(=O)C(O)c4cccc5cnn(C)c45)cc3C)cn(C)c2n1 (single isomer, unassigned) [Example 65, N-(4-(4-amino-2,7-dimethyl-7H-pyrrolo[2,3-d]pyrimidin-5-yl)-3-methylphenyl)-2-hydroxy-2-(1-methyl-1H-indazol-7-yl)acetamide] | 3000 to 4000 | –
10 | > 5000 | COc1cc(NC(=O)C(O)c2cccc(F)c2)ccc1-c1cn(C)c2nc(C)nc(N)c12 (single isomer, unassigned) [Example 105, N-(4-(4-amino-2,7-dimethyl-7H-pyrrolo[2,3-d]pyrimidin-5-yl)-3-methoxyphenyl)-2-(3-fluorophenyl)-2-hydroxyacetamide] | > 5000 | –
11 | 101 to 250 | COc1cc(NC(=O)C(O)c2cccc(F)c2)ccc1-c1cn(C)c2nc(C)nc(N)c12 (single isomer, unassigned) [Example 106, N-(4-(4-amino-2,7-dimethyl-7H-pyrrolo[2,3-d]pyrimidin-5-yl)-3-methoxyphenyl)-2-(3-fluorophenyl)-2-hydroxyacetamide] | 1000 to 2000 | –
12 | 251 to 500 | Cc1nc(N)c2c(-c3ccc(NC(=O)C(O)c4cccc(F)c4)c(F)c3F)cn(C)c2n1 (single isomer, unassigned) [Example 109, N-(4-(4-amino-2,7-dimethyl-7H-pyrrolo[2,3-d]pyrimidin-5-yl)-2,3-difluorophenyl)-2-(3-fluorophenyl)-2-hydroxyacetamide] | 1000 to 2000 | –
13 | 1 to 25 | Cc1nc(N)c2c(-c3ccc(NC(=O)C(O)c4cccc(F)c4)c(F)c3F)cn(C)c2n1 (single isomer, unassigned) [Example 110, N-(4-(4-amino-2,7-dimethyl-7H-pyrrolo[2,3-d]pyrimidin-5-yl)-2,3-difluorophenyl)-2-(3-fluorophenyl)-2-hydroxyacetamide] | 1 to 25 | –
14 | 1 to 25 | Cc1nc(N)c2c(-c3ccc(NC(=O)C(O)c4cc(F)cc(F)c4)c(F)c3F)cn(C)c2n1 (single isomer, unassigned) [Example 113, N-(4-(4-amino-2,7-dimethyl-7H-pyrrolo[2,3-d]pyrimidin-5-yl)-2,3-difluorophenyl)-2-(3,5-difluorophenyl)-2-hydroxyacetamide] | 1 to 25 | –
15 | 251 to 500 | Cc1nc(N)c2c(-c3ccc(NC(=O)C(O)c4cc(F)cc(F)c4)c(F)c3F)cn(C)c2n1 (single isomer, unassigned) [Example 114, N-(4-(4-amino-2,7-dimethyl-7H-pyrrolo[2,3-d]pyrimidin-5-yl)-2,3-difluorophenyl)-2-(3,5-difluorophenyl)-2-hydroxyacetamide] | 1000 to 2000 | –
16 | 1 to 25 | Cc1nc(N)c2c(-c3ccc(NC(=O)C(O)c4cc(F)cc(C(F)(F)F)c4)c(F)c3F)cn(C)c2n1 (single isomer, unassigned) [Example 115, N-(4-(4-amino-2,7-dimethyl-7H-pyrrolo[2,3-d]pyrimidin-5-yl)-2,3-difluorophenyl)-2-(3-fluoro-5-(trifluoromethyl)phenyl)-2-hydroxyacetamide] | 1 to 25 | –
17 | – | Cc1nc(N)c2c(-c3ccc(NC(=O)C(O)c4ccccc4C)cc3F)cn(C)c2n1 (stereo not shown) [Example 71, N-(4-(4-amino-2,7-dimethyl-7H-pyrrolo[2,3-d]pyrimidin-5-yl)-3-fluorophenyl)-2-hydroxy-2-(o-tolyl)acetamide] | 2000 to 3000 | –
18 | – | Cc1nc(N)c2c(-c3ccc(NC(=O)C(O)c4ccccc4C)cc3F)cn(C)c2n1 (stereo not shown) [Example 72, N-(4-(4-amino-2,7-dimethyl-7H-pyrrolo[2,3-d]pyrimidin-5-yl)-3-fluorophenyl)-2-hydroxy-2-(o-tolyl)acetamide] | 26 to 50 | –
19 | 1 to 25 | Cc1cc(NC(=O)Cc2cccc(C(F)(F)F)c2)ccc1-c1cn(C)c2ncnc(N)c12 [Example 158, N-(4-(4-amino-7-methyl-7H-pyrrolo[2,3-d]pyrimidin-5-yl)-3-methylphenyl)-2-(3-(trifluoromethyl)phenyl)acetamide] | – | –
20 | 1 to 25 | Cc1cc(NC(=O)Cc2ccccc2F)ccc1-c1cn(C)c2ncnc(N)c12 [Example 160, N-(4-(4-amino-7-methyl-7H-pyrrolo[2,3-d]pyrimidin-5-yl)-3-methylphenyl)-2-(2-fluorophenyl)acetamide] | – | –
21 | 26 to 50 | Cc1cc(NC(=O)Cc2cccc(F)c2)ccc1-c1cn(C)c2ncnc(N)c12 [Example 161] | – | –
